Consider two compounds from patent US10653780B2, “Amino lipids and methods for the delivery of nucleic acids” (ARBUTUS BIOPHARMA CORPORATION, priority 2008, dated 2020).

A short description of data set [1]: Pharmacokinetic and liver analysis of Cy-3 labeled siRNA in LN-siRNA systems. Format: in vivo. From the text: A fluorescently labeled siRNA (Cy-3 labeled luciferase siRNA, Alnylam Pharmaceuticals) was used to measure the siRNA content in plasma and liver after iv administration of LN-siRNA systems. The measurements were done by first extracting the Cy3-siRNA from the protein-containing biological matrix and then analyzing the amount of Cy-3 label in the extract by fluorescence. Two extraction methods were used, a chloroform/methanol mixture for the plasma samples and a commercial phenol/chloroform mixture (Trizol® reagent) with the tissue samples.
For plasma, blood was collected in EDTA-containing Vacutainer tubes and centrifuged at 1000×g for 10 min at 4-8° C. to isolate the plasma. The plasma was transferred to an eppendorf tube and either assayed immediately or stored in a −30° C. freezer. An aliquot of the plasma (100 μL maximum) was diluted to 500 μL with PBS (145 mM NaCl, 10 mM phosphate, pH 7.5), methanol (1.05 mL and chloroform (0.5 mL) was added, and the sample vortexed to obtain a clear, single phase solution. Water (0.5 mL) and chloroform (0.5 mL) was then added and the resulting emulsion sustained by mixing periodically for a minimum of 3 minutes. The mixture was centrifuged at 3000 rpm for 20 minutes and the top aqueous phase containing the Cy-3-label transferred to a new test tube. The fluorescence of the solution was measured using an SLM Fluorimeter at an excitation wavelength of 550 nm (2 nm bandwidth) and emission wavelength of 600 nm (16 nm bandwidth). A standard curve was generated by spiking aliquots of plasma from untreated animals with the Cy-3-siRNA containing formulation (0 to 15 μg/mL), and the sample processed as indicated above.
For liver, sections (400-500 mg) of tissue from saline-perfused animals was accurately weighed and homogenized in 1 mL of Trizol using Fastprep tubes. An aliquot of the homogenate (typically equivalent to 50 mg of tissue) was transferred to an eppendorf tube and additional Trizol added to 1 mL final. Chloroform (0.2 mL) was added, and the solution was mixed and incubated for 2-3 min before being centrifuged for 15 min at 12,000×g. An aliquot (0.5 mL) of the top Cy-3-containing aqueous phase was diluted with 0.5 mL of PBS and the fluorescence of the sample measured as described above.
The correlation between levels of siRNA delivered to the liver and FVII reduction was determined by encapsulating Cy-3 labeled siRNA in the selection of LN-siRNA systems covering a spectrum of in vivo activities shown in Table 8. Cy-3 fluorescence was measured in plasma and liver tissue 0.5 and 3.0 h post injection.

The subject of data set [2] is Factor VII (FVII). To be noted: for FVII ED50: Table 11. From the text:
It is well established that in vivo RNAi silencing of specific hepatocyte proteins can be achieved following intravenous (i.v.) administration of siRNA's encapsulated in, or associated with, select nanoparticles designed for intracellular delivery. […] In this Example, rational design in combination with in vivo screening were applied to systematically modify the structure of DLinDMA and identify molecular features that enhance or reduce cationic lipid potency. More than 30 lipids were synthesized and incorporated into nucleic acid-lipid particles, i.e., lipid nanoparticles (LN) encapsulating an siRNA (LN-siRNA) targeting Factor VII (FVII), a blood clotting component synthesized and secreted by hepatocytes that is readily measured in serum. LN-siRNA systems were prepared using the same process, lipid molar ratios and particle size to minimize effects on activity resulting from formulation characteristics other than the cationic lipid. Each formulation was administered as a single bolus injection over a range of doses enabling an estimate of the siRNA dose required to reduce FVII serum protein concentrations by 50% after 24 h (ED50).
FVII activity was evaluated in FVII siRNA-treated animals at 24 hours after intravenous (bolus) injection in C57BL/6 mice or 48 hours after intravenous (bolus) injection in SD rats. Six to 8 week old, female C57Bl/6 mice were obtained from Charles River Laboratories and acclimated for one week prior to use in studies. Animals were held in a pathogen-free environment and all procedures involving animals were performed in accordance with the guidelines established by the Canadian Council on Animal Care.
LN-siRNA systems containing Factor VII siRNA were diluted to the appropriate concentrations in sterile phosphate buffered saline immediately prior to use, and the formulations were administered intravenously via the lateral tail vein in a total volume of 10 ml/kg. After 24 h, animals were anaesthetised with Ketamine/Xylazine and blood was collected by cardiac puncture and processed to serum (Microtainer Serum Separator Tubes; Becton Dickinson, Franklin Lakes, N.J., USA). Serum was tested immediately or stored at −70° C. for later analysis for serum Factor VII levels.
FVII was measured using a commercially available kit (Biophen FVII Kit™; Aniara Corp., Mason, Ohio), following the manufacturer's instructions at a microplate scale. FVII reduction was determined against untreated control animals, and the results were expressed as % Residual FVII. Five dose levels (0.1, 0.3, 0.5, 1.0, and 3.0 mg/kg) were typically used.
Serum Factor VII levels were determined using the colorimetric Biophen VII assay kit (Anaira, USA). Briefly, serially diluted pooled control serum (200%-3.125%) and appropriately diluted plasma samples from treated animals were analyzed using the Biophen VII kit according to manufacturer's instructions in 96-well, flat bottom, non-binding polystyrene assay plates (Corning, Corning, N.Y.) and absorbance at 405 nm was measured. A calibration curve was generated using the serial diluted control serum and used to determine levels of Factor VII in serum from treated animals.
Initial studies were performed in eight to 10 week old, female C57BL/6 mice in two stages. In the first stage, the activity associated with the benchmark lipid DLinDMA was compared to the activity associated with modified forms of DLinDMA.

Data set [3] in a line: Bilayer-to-hexagonal HII transition temperature (TBH) in equimolar mixtures with DSPS. Format: physicochemical. The conditions noted are these: equimolar with DSPS, pH 4.8; 31P NMR and DSC. From the text: Both techniques gave similar results.
A short description of data set [4]: In situ determination of apparent pKa using TNS fluorescence titration.
Excerpt: In situ pKa measurements were made using the pH sensitive fluorescent probe TNS, using a modification of the approach previously published in Bailey, A. L. and Cullis, P. R., Biochemistry 33:12573-12580 (1994).
Titrations of surface charge as a function of pH can then be used to determine the apparent pKa (hereafter referred to as pKa) of constituent lipids (Cullis, P. R., et al., Chem Phys Lipids 40:127-144 (1986)).
Data set [5] is described as follows: Tolerability of DLin-K-DMA-containing LN-siRNA systems in mice at extreme doses.
Description: The tolerability of empty DLin-K-C2-DMA lipid particles (DLin-K-C2-DMA/DSPC/Chol/PEG-C-DOMG (40/10/40/10)) was evaluated by monitoring weight change, cageside observations, clinical chemistry and, in some instances, hematology in femal Sprague Dawley rats and female C57BL/6 mice. Animal weights were recorded prior to treatment and at 24 hours after intravenous treatment with various dosages. Data was recorded as % Change in Body Weight. In addition to body weight measurements, clinical chemistry panel, including liver function markers, was obtained at each dose level at 24 hours post-injection using an aliquot of the serum collected for FVII analysis. […] In some instances, additional animals were included in the treatment group to allow collection of whole blood for hematology analysis.
The toxicity criteria measured were % change in body weight and serum levels of the liver enzyme markers, ALT and AST.
[6] abbreviates: Table 4, siRNA dose reducing serum FVII protein by 50% at 24 h, PFV LN-siRNA 40/10/40/10.
Setting [7] is: Table 8, FVII ED50 of the LN-siRNA system.
Where [8] appears, read: siRNA dose reducing serum FVII protein by 50% at 24 h, PFV LN-siRNA 40/10/40/10.
Setting [9] is: siRNA 0-10 mg/kg, total lipid 0-164 mg/kg.
The mark [10] stands for this setting: siRNA 46 mg/kg, total lipid 750 mg/kg.
[11] abbreviates: siRNA 61 mg/kg, total lipid 1000 mg/kg.
The mark [12] stands for this setting: siRNA 76 mg/kg, total lipid 1250 mg/kg.
[13] abbreviates: siRNA 92 mg/kg, total lipid 1500 mg/kg.

Like-named read-outs stand apart in the source and are kept apart here.

For the compound “1,2-Dilinoleoyl-3-dimethylaminopropane [DLinDAP]”, the “Liver Cy-3 siRNA” value in data set [1] (0.5 h post injection) stood at 20.5 % injected dose; in data set [1] (3.0 h post injection), 16.5 % injected dose. For the same compound, the figures for the “Plasma Cy-3 siRNA” value in data set [1] (0.5 h post injection) and in data set [1] (3.0 h post injection) were 46.6 % injected dose and 3.3 % injected dose, respectively. Moreover, the ED50 in data set [2] (setting [6]) lay within 40 to 50 mg/kg; in data set [2] (setting [7]), 12 to 25 mg/kg; in data set [2] (setting [8]), 12 to 25 mg/kg. Also, the “FVII ED50” value in data set [2] is recorded as greater than 25 mg/kg. For the same compound, the HII transition temperature in data set [3] came to 26 °C. Besides, the “Apparent pKa” value in data set [4] (in situ in preformed vesicles, TNS fluorescence titration, Table 11) stood at 5.7.
As to `CCCCC/C=C\C/C=C\CCCCCCCCC1(CCCCCCCC/C=C\C/C=C\CCCCC)OCC(CN(C)C)O1` (racemic) [DLin-K-DMA, 2,2-Dilinoleyl-4-dimethylaminomethyl-[1,3]-dioxolane], the ED50 in data set [2] (setting [6]) is given as roughly 0.4 mg/kg; in data set [2] (Table 6, siRNA dose reducing serum FVII protein by 50% at 24 h, PFV LN-siRNA 40/10/40/10), roughly 0.4 mg/kg; in data set [2] (Table 7, siRNA dose reducing serum FVII protein by 50% at 24 h, PFV LN-siRNA 40/10/40/10) it was roughly 1 mg/kg; in data set [2] (setting [7]), 0.3 mg/kg; in data set [2] (setting [8]), roughly 0.4 mg/kg; in data set [2] (siRNA dose reducing serum FVII protein by 50% at 24 h, PFV LN-siRNA 40/10/40/10, listed as DLin-K-DMA racemic mixture), roughly 0.3 mg/kg. Besides, the “FVII ED50” value in data set [2] is on record as roughly 0.4 mg/kg; in data set [2] (listed as DLin-K-DMA (racemic mixture)), roughly 0.3 mg/kg. In addition, in data set [2] (reducing serum FVII protein, mouse, head-to-head), the “fold more potent than the DLinDMA benchmark” value is listed as roughly 2.5 fold. In addition, the HII transition temperature in data set [3] came to 19 °C. The pKa in data set [4] is 5.6. The “siRNA dose up to which no changes in blood chemistry or body weight were observed” value in data set [5] (compared to saline controls, mice) came out at 10 mg/kg. This compound also registered a body weight lost in data set [5] (maximum dose 92 mg siRNA/kg, 1500 mg total lipid/kg) of 6%. Moreover, the “siRNA dose exceeded before severe (>10-fold) ALT/AST increases are observed” value in data set [5] (mice) was “exceeded 61 mg/kg”. The “% Change Body Weight” value in data set [5] (setting [9]) is reported as 0%; in data set [5] (setting [10]) it was −5.0%; in data set [5] (setting [11]) it was −4.5%; in data set [5] (setting [12]), −5.5%; in data set [5] (setting [13]) it was −6.0%. In addition, the ALT was 45 IU/L in data set [5] (setting [9]); 174 IU/L in data set [5] (setting [10]); 448 IU/L in data set [5] (setting [11]); 1771 IU/L in data set [5] (setting [12]); 4723 IU/L in data set [5] (setting [13]). Further, the AST in data set [5] (setting [9]) came to 90 IU/L; in data set [5] (setting [10]) it was 340 IU/L; in data set [5] (setting [11]), 816 IU/L; in data set [5] (setting [12]), 4723 IU/L; in data set [5] (setting [13]) it was 2094 IU/L. In data set [5] (setting [10]), the “increases in serum ALT and AST” value is reported as less than 10 fold normal. Besides, in data set [5] (siRNA dose of 10 mg/kg without changes), the “fold greater than the ED50 dose” value is listed as greater than 30 fold. In addition, the “fold more than the ED50” value in data set [5] (siRNA dose of 46 mg/kg, first significant toxicity signs) was 150 fold.
